Measured values reported in US9951065B2 (Gilead Sciences, Inc., priority 2015, dated 2018).

Biological target: T1, IDO1 (Homo sapiens, UniProt P14902)
T1 construct: HeLa cells were treated with a test compound in the presence of IFNγ, which induces IDO1 expression; host or cells: H1-HeLa cells, IDO1 induced with IFNγ
Experiment: Cell-based (HeLa) assay for measurement of IDO1 inhibition (kynurenine levels in supernatant after IFNγ induction)
Settings: HeLa cells, IFNγ-induced IDO1, kynurenine in supernatant after 48 hour incubation; geometric mean of a minimum of four determinations
Procedure: Example 509. Cell-Based (HeLa) Assay for Measurement of IDOL Inhibition
To measure IDO1 inhibition in tissue culture, HeLa cells were treated with a test compound in the presence of IFNγ, which induces IDO1 expression. Following incubation, cell supernatants were assayed for kynurenine levels, an indicator of IDO1 activity.
H1-HeLa cells (ATCC #CRL-1958) were seeded in 384-well plates (Greiner #82051-282) at a volume of 50 μL/well in DMEM (Corning #15-018-CM) supplemented with 10% FBS (Corning #35-011-CV) and 1% P/S/G (Corning #30-009-CL) at a density of 1,250 cells/well and incubated overnight at 37° C., 5% CO2/100% humidity. The following day, the test compounds were added in DMSO (0.5% final) at various concentrations, and IDO1 was inducibly expressed by the addition of 50 uL/well of […] of INFγ (Peprotech #300-02) in cell plating media. As a […] control, 50 uL of the cell plating media without IFNγ was added to several wells. Following a 48 hour incubation, the plates were spun down at 1,200 RPM for 5 min at 10° C. 65 μL/well of the supernatant was then transferred to new 384-well plates (Thermo #262160) that contained 10 uL/well of 30% TCA (Sigma #TO699), and the plates were sealed and incubated at 60° C. for 30 min. The plates were then centrifuged for 15 min at 2,000 RPM at 10° C. 40 μL/well of the supernatant was transferred to new 384-well plates (Thermo #262160) and was reacted with 40 μL/well of 2% (w/v) p-dimethlyaminobenzaldehyde (Sigma #156417) in glacial acetic acid (Sigma #A6283). The reaction was incubated at room temperature for 10 min and absorbance at 480 nm was read using a PerkinElmer Envision plate reader.
Data in Table 1 were normalized based on positive (−IFNγ) and negative (+IFNγ) controls and EC50 values were calculated from the fit of the dose response curves to a four-parameter equation. All EC50 values represent geometric mean values of a minimum of four determinations. These assays generally produced results within 2-fold of the reported mean.

T1 sequence (P14902 whole entry): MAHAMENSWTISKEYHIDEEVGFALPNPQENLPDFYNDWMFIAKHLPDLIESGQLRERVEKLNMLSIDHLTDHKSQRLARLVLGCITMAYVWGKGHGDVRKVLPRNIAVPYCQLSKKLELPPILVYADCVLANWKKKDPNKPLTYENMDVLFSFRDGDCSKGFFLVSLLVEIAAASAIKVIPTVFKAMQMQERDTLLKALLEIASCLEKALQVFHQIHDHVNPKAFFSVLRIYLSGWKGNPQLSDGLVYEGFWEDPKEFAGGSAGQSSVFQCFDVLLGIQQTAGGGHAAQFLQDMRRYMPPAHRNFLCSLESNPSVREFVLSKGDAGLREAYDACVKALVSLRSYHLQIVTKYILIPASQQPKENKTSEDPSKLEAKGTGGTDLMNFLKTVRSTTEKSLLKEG

| EC50 [nM] | SMILES |
| --- | --- |
| 2400 | OCCc1nc2nccc(/C(=N/O)Nc3ccc(F)c(Cl)c3)c2[nH]1 [Example 183, N-(3-Chloro-4-fluorophenyl)-N′-hydroxy-2-(2-hydroxyethyl)-1H-imidazo[4,5-b]pyridine-7-carboximidamide] |
| 801 | CCNCc1nc2c(F)c(F)cc(/C(=N/O)Nc3cccc(Cl)c3)c2[nH]1 [Example 28, N-(3-Chlorophenyl)-2-((ethylamino)methyl)-4,5-difluoro-N′-hydroxy-1H-benzo[d]imidazole-7-carboximidamide] |
| 7600 | O/N=C(\Nc1ccc(F)c(Cl)c1)c1cc(Cl)cc2[nH]cnc12 [Example 11, 6-Chloro-N-(3-chloro-4-fluorophenyl)-N′-hydroxy-1H-benzo[d]imidazole-4-carboximidamide] |
| 2230 | O/N=C(\Nc1ccc(F)c(Cl)c1)c1ccnc2nc(-c3ccc[nH]3)[nH]c12 [Example 148, N-(3-Chloro-4-fluorophenyl)-N′-hydroxy-2-(1H-pyrrol-2-yl)-1H-imidazo[4,5-b]pyridine-7-carboximidamide] |
| 1330 | COCCCNCc1nc2nccc(/C(=N/O)Nc3ccc(F)c(Cl)c3)c2[nH]1 [Example 120, N-(3-Chloro-4-fluorophenyl)-N′-hydroxy-2-(((3-methoxypropyl)amino)methyl)-1H-imidazo[4,5-b]pyridine-7-carboximidamide] |
| 445 | CC#Cc1cc(N/C(=N\O)c2ccnc3nc[nH]c23)ccc1F [Example 84, N-(4-Fluoro-3-(prop-1-yn-1-yl)phenyl)-N′-hydroxy-1H-imidazo[4,5-b]pyridine-7-carboximidamide] |
| 725 | Nc1nc2c(F)ccc(/C(=N/O)Nc3ccc(F)c(C(F)(F)F)c3)c2[nH]1 [Example 21, 2-Amino-4-fluoro-N-(4-fluoro-3-(trifluoromethyl)phenyl)-N′-hydroxy-1H-benzo[d]imidazole-7-carboximidamide] |
| 280 | O/N=C(\Nc1cc(F)cc(Br)c1)c1ccnc2nc[nH]c12 [Example 72, N-(3-Bromo-5-fluorophenyl)-N′-hydroxy-1H-imidazo[4,5-b]pyridine-7-carboximidamide] |
| 1830 | CS(=O)(=O)CCNc1nc2c(F)ccc(/C(=N/O)Nc3ccc(F)c(Cl)c3)c2[nH]1 [Example 33, N-(3-Chloro-4-fluorophenyl)-4-fluoro-N′-hydroxy-2-((2-(methylsulfonyl)ethyl)amino)-1H-benzo[d]imidazole-7-carboximidamide] |
| 208 | O/N=C(\Nc1ccc(F)c(Cl)c1)c1ccnc2nc[nH]c12 [Example 59, N-(3-Chloro-4-fluorophenyl)-N′-hydroxy-1H-imidazo[4,5-b]pyridine-7-carboximidamide] |
| 404 | Nc1nc2c(F)ccc(/C(=N/O)Nc3cccc(Cl)c3)c2[nH]1 [Example 20, 2-Amino-N-(3-chlorophenyl)-4-fluoro-N′-hydroxy-1H-benzo[d]imidazole-7-carboximidamide] |
| 2280 | O/N=C(\Nc1ccc(F)c(Cl)c1)c1ccnc2nc(CNCc3cccnc3)[nH]c12 [Example 126, N-(3-Chloro-4-fluorophenyl)-N′-hydroxy-2-(((pyridin-3-ylmethyl)amino)methyl)-1H-imidazo[4,5-b]pyridine-7-carboximidamide] |
| 7660 | NCc1nc2nccc(/C(=N/O)Nc3ccc(F)c(Cl)c3)c2[nH]1 [Example 179, 2-(Aminomethyl)-N-(3-chloro-4-fluorophenyl)-N′-hydroxy-1H-imidazo[4,5-b]pyridine-7-carboximidamide] |
| 247 | CCN(CC)CCNc1nc2c(F)c(F)cc(/C(=N/O)Nc3ccc(F)c(Cl)c3)c2[nH]1 [Example 42, N-(3-Chloro-4-fluorophenyl)-2-((2-(diethylamino)ethyl)amino)-4,5-difluoro-N′-hydroxy-1H-benzo[d]imidazole-7-carboximidamide] |
| 1330 | CC(C)CNCc1nc2nccc(/C(=N/O)Nc3ccc(F)c(Cl)c3)c2[nH]1 [Example 196, N-(3-Chloro-4-fluorophenyl)-N′-hydroxy-2-((isobutylamino)methyl)-1H-imidazo[4,5-b]pyridine-7-carboximidamide] |
| 770 | O/N=C(\Nc1ccccc1)c1ccnc2nc[nH]c12 [Example 100, N′-hydroxy-N-phenyl-1H-imidazo[4,5-b]pyridine-7-carboximidamide] |
| 1120 | O/N=C(\Nc1ccc(F)c(Cl)c1)c1ccnc2nc(NCCN3CCC3)[nH]c12 [Example 233, 2-((2-(azetidin-1-yl)ethyl)amino)-N-(3-chloro-4-fluorophenyl)-N′-hydroxy-1H-imidazo[4,5-b]pyridine-7-carboximidamide] |
| 291 | CN(CCNc1nc2nccc(/C(=N/O)Nc3ccc(F)c(Cl)c3)c2[nH]1)C1CC1 [Example 231, N-(3-chloro-4-fluorophenyl)-2-((2-(cyclopropyl(methyl)amino)ethyl)amino)-N′-hydroxy-1H-imidazo[4,5-b]pyridine-7-carboximidamide] |
| 7350 | CC(C)(CO)CNCc1nc2nccc(/C(=N/O)Nc3ccc(F)c(Cl)c3)c2[nH]1 [Example 143, N-(3-Chloro-4-fluorophenyl)-N′-hydroxy-2-(((3-hydroxy-2,2-dimethylpropyl)amino)methyl)-1H-imidazo[4,5-b]pyridine-7-carboximidamide] |
| 835 | OCc1nc2c(/C(=N/O)Nc3ccc(F)c(Cl)c3)cc(F)c(F)c2[nH]1 [Example 46, N-(3-Chloro-4-fluorophenyl)-4,5-difluoro-N′-hydroxy-2-(hydroxymethyl)-1H-benzo[d]imidazole-7-carboximidamide] |

Same assay, conditions: HeLa cells, IFNγ-induced IDO1, kynurenine in supernatant, 48 hour incubation; geometric mean of a minimum of four determinations

| EC50 [nM] | SMILES |
| --- | --- |
| 468 | CCN(CC)[C@@H]1COC[C@H]1Nc1nc2c(F)c(F)cc(/C(=N/O)Nc3ccc(F)c(Cl)c3)c2[nH]1 [Example 476, N-(3-chloro-4-fluorophenyl)-2-(((3S,4S)-4-(diethylamino)tetrahydrofuran-3-yl)amino)-4,5-difluoro-N′-hydroxy-1H-benzo[d]imidazole-7-carboximidamide] |
| 337 | CN1CCC[C@H](Nc2nc3c(F)c(F)cc(/C(=N/O)Nc4cccc(Cl)c4)c3[nH]2)C1 [Example 459, (S)—N-(3-chlorophenyl)-4,5-difluoro-N′-hydroxy-2-((1-methylpiperidin-3-yl)amino)-1H-benzo[d]imidazole-7-carboximidamide] |
| 3030 | CN(C)CC(C)(C)CNc1nc2c(F)ccc(/C(=N/O)Nc3ccc(F)c(Cl)c3)c2[nH]1 [Example 381, N-(3-chloro-4-fluorophenyl)-2-((3-(dimethylamino)-2,2-dimethylpropyl)amino)-4-fluoro-N′-hydroxy-1H-benzo[d]imidazole-7-carboximidamide] |
| 5000 | O/N=C(\Nc1ccc(F)c(Cl)c1)c1ccnc2nc(CC3CCCN3)[nH]c12 (centres unmarked) [Example 329, N-(3-chloro-4-fluorophenyl)-N′-hydroxy-2-(pyrrolidin-2-ylmethyl)-1H-imidazo[4,5-b]pyridine-7-carboximidamide] |
| 852 | O/N=C(\Nc1ccc(F)c(Cl)c1)c1cc(F)c(F)c2nc(NCC34CCCN3CCC4)[nH]c12 [Example 471, N-(3-chloro-4-fluorophenyl)-4,5-difluoro-2-(((hexahydro-1H-pyrrolizin-7a-yl)methyl)amino)-N′-hydroxy-1H-benzo[d]imidazole-7-carboximidamide] |
| 1020 | CN(CCNc1nc2c(F)c(F)cc(/C(=N/O)Nc3ccc(F)c(Cl)c3)c2[nH]1)Cc1ccccc1 [Example 390, 2-((2-(benzyl(methyl)amino)ethyl)amino)-N-(3-chloro-4-fluorophenyl)-4,5-difluoro-N′-hydroxy-W-benzo[d]imidazole-7-carboximidamide] |
| > 10000 | CN(C)C1(CNc2nc3c(F)c(F)cc(/C(=N/O)Nc4ccc(F)c(Cl)c4)c3[nH]2)CCC1 [Example 441, N-(3-chloro-4-fluorophenyl)-2-(((1-(dimethylamino)cyclobutyl)methyl)amino)-4,5-difluoro-N′-hydroxy-1H-benzo[d]imidazole-7-carboximidamide] |
| 1390 | O/N=C(\Nc1ccc(F)c(Cl)c1)c1cc(F)cc2nc(NCCN3CCCC3)[nH]c12 [Example 380, N-(3-chloro-4-fluorophenyl)-5-fluoro-N′-hydroxy-2-((2-(pyrrolidin-1-yl)ethyl)amino)-1H-benzo[d]imidazole-7-carboximidamide] |
| 3240 | CN1CCOC(CNc2nc3nccc(/C(=N/O)Nc4ccc(F)c(Cl)c4)c3[nH]2)C1 (centres unmarked) [Example 357, N-(3-chloro-4-fluorophenyl)-N′-hydroxy-2-(((4-methylmorpholin-2-yl)methyl)amino)-1H-imidazo[4,5-b]pyridine-7-carboximidamide] |
